Data: patent US8318769B2, “Substituted sulfonamide compounds” (Gruenethal GmbH, priority 2008, dated 2012)

Tests used:
[1] = molecular target: T1, bradykinin 1 receptor (B1R) of the rat (Rattus norvegicus, UniProt P97583); assay: FLIPR Ca2+ assay, B1R antagonism, rat; assay type: cell-based; conditions: CHO-K1, 10 μM test substance; CHO K1 cells with rat B1R gene (rB1R cells); Des-Arg9-bradykinin at EC80; % inhibition compared with the maximum achievable inhibition; read-out: B1R antagonism, rat [10 μM] % inhibition
T1 construct: expressed in transfected cells
T1 sequence (P97583 1-337): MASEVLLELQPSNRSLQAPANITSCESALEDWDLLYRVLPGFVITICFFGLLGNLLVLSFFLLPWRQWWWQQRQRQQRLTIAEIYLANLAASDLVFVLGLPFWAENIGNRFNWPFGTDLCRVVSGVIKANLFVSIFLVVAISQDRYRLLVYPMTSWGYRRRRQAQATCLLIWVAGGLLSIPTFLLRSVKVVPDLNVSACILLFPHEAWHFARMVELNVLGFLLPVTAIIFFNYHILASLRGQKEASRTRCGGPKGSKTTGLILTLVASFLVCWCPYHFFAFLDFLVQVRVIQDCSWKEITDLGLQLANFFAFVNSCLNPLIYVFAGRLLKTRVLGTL
How it was run: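 CHO K1 cells stably expressing human or rat B1R, loaded with Fluo-4 and read in FLIPR (ex 488, em 540 nm, peak fluorescence). Test compound 10 μM preincubated 10-20 min, then EC80 agonist added (Lys-Des-Arg9-bradykinin for human, Des-Arg9-bradykinin for rat); % inhibition relative to maximum achievable inhibition.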

[2] = molecular target: T2, human bradykinin 1 receptor (B1R) (Homo sapiens, UniProt P46663); assay: FLIPR Ca2+ assay, B1R antagonism, human; assay type: cell-based; conditions: 10 μM test substance; CHO K1 cells with human B1R gene (hB1R cells); Lys-Des-Arg9-bradykinin at EC80; % inhibition compared with the maximum achievable inhibition; read-out: B1R antagonism, human [10 μM] % inhibition
T2 construct: expressed in transfected cells
T2 sequence (P46663 1-353): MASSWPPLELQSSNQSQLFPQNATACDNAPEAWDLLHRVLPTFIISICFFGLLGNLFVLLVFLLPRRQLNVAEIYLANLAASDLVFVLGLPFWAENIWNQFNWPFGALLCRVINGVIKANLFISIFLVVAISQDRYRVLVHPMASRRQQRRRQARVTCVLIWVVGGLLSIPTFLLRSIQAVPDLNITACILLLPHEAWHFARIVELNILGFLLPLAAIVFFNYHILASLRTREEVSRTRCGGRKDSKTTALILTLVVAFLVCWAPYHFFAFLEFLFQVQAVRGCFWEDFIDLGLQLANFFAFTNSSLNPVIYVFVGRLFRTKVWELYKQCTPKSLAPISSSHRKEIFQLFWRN
Experimental: The agonistic or antagonistic action of substances can be quantified on the bradykinin 1 receptor (B1R) of the human and rat species with ectopically expressing cell lines (CHO K1 cells) and with the aid of a Ca^2+-sensitive dyestuff (Fluo-4) in a fluorescent imaging plate reader (FLIPR). The figure in % activation is based on the Ca^2+ signal after addition of Lys-Des-Arg^9-bradykinin (0.5 nM) or Des-Arg^9-bradykinin (100 nM). Antagonists lead to a suppression of the Ca^2+ inflow after addition of the agonist. % inhibition compared with the maximum achievable inhibition is stated.
The agonistic or antagonistic action of substances can be determined on the bradykinin 1 receptor (B1R) of the human and rat species with the following assay. In accordance with this assay, the Ca^2+ inflow through the channel is quantified with the aid of a Ca^2+-sensitive dyestuff (type Fluo-4, Molecular Probes Europe BV, Leiden, Holland) in a fluorescent imaging plate reader (FLIPR, Molecular Devices, Sunnyvale, USA).
Chinese hamster ovary cells (CHO K1 cells) transfected stably with the human B1R gene (hB1R cells) or the B1R gene of the rat (rB1R cells) are used. For functional studies, these cells are plated out on black 96-well plates with a clear base (BD Biosciences, Heidelberg, Germany or Greiner, Frickenhausen, Germany) in a density of 20,000-35,000 cells/well. The cells are left overnight at 37° C. and 5% CO2 in culture medium (hB1R cells: Nutrient Mixture Ham's F12, Gibco Invitrogen GmbH, Karlsruhe, Germany or DMEM, Sigma-Aldrich, Taufkirchen, Germany; rB1R cells: D-MEM/F12, Gibco Invitrogen GmbH, Karlsruhe, Germany) with 10 vol. % FBS (foetal bovine serum, Gibco Invitrogen GmbH, Karlsruhe, Germany or PAN Biotech GmbH, Aidenbach, Germany).
On the following day, the cells are loaded for 60 min at 37° C. with 2.13 μM Fluo-4 (Molecular Probes Europe BV, Leiden, Holland) in HBSS buffer (Hank's buffered saline solution, Gibco Invitrogen GmbH, Karlsruhe, Germany) with 2.5 mM probenecid (Sigma-Aldrich, Taufkirchen, Germany) and 10 mM HEPES (Sigma-Aldrich, Taufkirchen, Germany). The plates are then washed 2× with HBSS buffer, and HBSS buffer which additionally contains 0.1% BSA (bovine serum albumin; Sigma-Aldrich, Taufkirchen, Germany), 5.6 mM glucose and 0.05% gelatine (Merck KGaA, Darmstadt, Germany) is added. After a further incubation of 20 minutes at room temperature, the plates are inserted into the FLIPR for the Ca^2+ measurement.
Alternatively, the plates are washed with buffer A (15 mM HEPES, 80 mM NaCl, 5 mM KCl, 1.2 mM CaCl2, 0.7 mM MgSO4, 2 g/l glucose, 2.5 mM probenecid), buffer A is added and the plates are loaded with 2.5 μM Fluo-4 and 0.025% Pluronic F127 (Sigma-Aldrich, Taufkirchen, Germany). Thereafter, the cells are washed 2× with buffer A and incubated for 30 minutes with buffer A, which additionally contains 0.05% BSA and 0.05% gelatine, at room temperature and thereafter inserted into the FLIPR for the Ca^2+ measurement.
The Ca^2+-dependent fluorescence is measured here before and after addition of substances (λex=488 nm, λem=540 nm). Quantification is by measurement of the highest fluorescence intensity (FC, fluorescence counts) over time.
The FLIPR protocol consists of 2 additions of substance. Test substances (10 μM) are first pipetted on to the cells and the Ca^2+ inflow is compared with the control (hB1R: Lys-Des-Arg^9-bradykinin >=50 nM; rB1R: Des-Arg^9-bradykinin 10 μM). This gives the figure in % activation based on the Ca^2+ signal after addition of Lys-Des-Arg^9-bradykinin (>=50 nM) or Des-Arg^9-bradykinin (10 μM).
After incubation for 10-20 minutes, Lys-Des-Arg^9-bradykinin (hB1R) or Des-Arg^9-bradykinin (rB1R) in the concentration of the EC80 is applied and the inflow of Ca^2+ is likewise determined. Antagonists lead to a suppression of the Ca^2+ inflow. % inhibition compared with the maximum achievable inhibition is calculated. […]

Structure (SMILES)	inhibition at 10 µM [1] [%]	inhibition at 10 µM [2] [%]
O=C(COCC1CCc2ccccc2N1S(=O)(=O)c1ccc(Cl)c(Cl)c1)N1CCC(OCCCN2CCCCC2)(c2cccnc2)CC1 (stereo not shown) [Example 19, 2-((1-(3,4-dichlorophenylsulfonyl)-1,2,3,4-tetrahydroquinolin-2-yl)methoxy)-1-(4-(3-(piperidin-1-yl)propoxy)-4-(pyridin-3-yl)piperidin-1-yl)ethanone]	94	103
COc1cc(C)c(S(=O)(=O)N2CCCCC2COCC(=O)N2CCC(OCCN3CCCC3)(c3cccnc3)CC2)c(C)c1 (stereo not shown) [Example 20, 2-((1-(4-methoxy-2,6-dimethylphenylsulfonyl)piperidin-2-yl)methoxy)-1-(4-(pyridin-3-yl)-4-(2-(pyrrolidin-1-yl)ethoxy)piperidin-1-yl)ethanone]	102	104
COc1cc(C)c(S(=O)(=O)N(C)CCOCC(=O)N2CCC(OCCN3CCCC3)(c3cccnc3)CC2)c(C)c1 [Example 21, 4-methoxy-N,2,6-trimethyl-N-(2-(2-oxo-2-(4-(pyridin-3-yl)-4-(2-(pyrrolidin-1-yl)ethoxy)piperidin-1-yl)ethoxy)ethyl)benzenesulfonamide]	100	98
O=C(CC1CCCCN1S(=O)(=O)c1cccc(C(F)(F)F)c1)N1CCC(OCCN2CCCC2)(c2cccnc2)CC1 (stereo not shown) [Example 22, 1-(4-(pyridin-3-yl)-4-(2-(pyrrolidin-1-yl)ethoxy)piperidin-1-yl)-2-(1-(3-(trifluoromethyl)phenylsulfonyl)piperidin-2-yl)ethanone]	102	39
O=C(CC1CCCCN1S(=O)(=O)c1cccc(C(F)(F)F)c1)N1CCC(OCCCN2CCCCC2)(c2cccnc2)CC1 (stereo not shown) [Example 23, 1-(4-(3-(piperidin-1-yl)propoxy)-4-(pyridin-3-yl)piperidin-1-yl)-2-(1-(3-(trifluoromethyl)phenylsulfonyl)piperidin-2-yl)ethanone]	46	57
O=C(COCC1CCc2ccccc2N1S(=O)(=O)c1ccc(Cl)c(Cl)c1)N1CCC(OCCN2CCCC2)(c2cccnc2)CC1 (stereo not shown) [Example 24, 2-((1-(3,4-dichlorophenylsulfonyl)-1,2,3,4-tetrahydroquinolin-2-yl)methoxy)-1-(4-(pyridin-3-yl)-4-(2-(pyrrolidin-1-yl)ethoxy)piperidin-1-yl)ethanone]	101	69
Cc1cc(S(=O)(=O)N2CCCCC2CCC(=O)N2CCC(OCCN3CCCC3)(c3cccnc3)CC2)c(C)cc1Cl (stereo not shown) [Example 25, 3-(1-(4-chloro-2,5-dimethylphenylsulfonyl)piperidin-2-yl)-1-(4-(pyridin-3-yl)-4-(2-(pyrrolidin-1-yl)ethoxy)piperidin-1-yl)propan-1-one]	72	86
O=C(CC(NS(=O)(=O)c1ccc2ccccc2c1)c1ccccc1)N1CCC(OCCN2CCCC2)(c2cccnc2)CC1 (stereo not shown) [Example 26, N-(3-oxo-1-phenyl-3-(4-(pyridin-3-yl)-4-(2-(pyrrolidin-1-yl)ethoxy)piperidin-1-yl)propyl)naphthalene-2-sulfonamide]	91	87
O=C(CC(NS(=O)(=O)c1ccc2ccccc2c1)c1ccccc1)N1CCC(OCCCN2CCCCC2)(c2cccnc2)CC1 (stereo not shown) [Example 27, N-(3-oxo-1-phenyl-3-(4-(3-(piperidin-1-yl)propoxy)-4-(pyridin-3-yl)piperidin-1-yl)propyl)naphthalene-2-sulfonamide]	101	83
COc1cc(C)c(S(=O)(=O)N2CCCCC2COCC(=O)N2CCC(OCCN3CCN(C)CC3)(c3cccnc3)CC2)c(C)c1 (stereo not shown) [Example 28, 2-((1-(4-methoxy-2,6-dimethylphenylsulfonyl)piperidin-2-yl)methoxy)-1-(4-(2-(4-methylpiperazin-1-yl)ethoxy)-4-(pyridin-3-yl)piperidin-1-yl)ethanone]	102	97
COc1cc(C)c(S(=O)(=O)N(C)CCOCC(=O)N2CCC(OCCN3CCN(C)CC3)(c3cccnc3)CC2)c(C)c1 [Example 29, 4-methoxy-N,2,6-trimethyl-N-(2-(2-(4-(2-(4-methylpiperazin-1-yl)ethoxy)-4-(pyridin-3-yl)piperidin-1-yl)-2-oxoethoxy)ethyl)benzenesulfonamide]	101	99
CN1CCN(CCOC2(c3cccnc3)CCN(C(=O)CC3CCCCN3S(=O)(=O)c3cccc(C(F)(F)F)c3)CC2)CC1 (stereo not shown) [Example 30, 1-(4-(2-(4-methylpiperazin-1-yl)ethoxy)-4-(pyridin-3-yl)piperidin-1-yl)-2-(1-(3-(trifluoromethyl)phenylsulfonyl)piperidin-2-yl)ethanone]	18	31
Cc1cc(S(=O)(=O)N2CCCCC2CCC(=O)N2CCC(OCCN3CCN(C)CC3)(c3cccnc3)CC2)c(C)cc1Cl (stereo not shown) [Example 31, 3-(1-(4-chloro-2,5-dimethylphenylsulfonyl)piperidin-2-yl)-1-(4-(2-(4-methylpiperazin-1-yl)ethoxy)-4-(pyridin-3-yl)piperidin-1-yl)propan-1-one]	61	85
CN1CCN(CCOC2(c3cccnc3)CCN(C(=O)CC(NS(=O)(=O)c3ccc4ccccc4c3)c3ccccc3)CC2)CC1 (stereo not shown) [Example 32, N-(3-(4-(2-(4-methylpiperazin-1-yl)ethoxy)-4-(pyridin-3-yl)piperidin-1-yl)-3-oxo-1-phenylpropyl)naphthalene-2-sulfonamide]	98	63
